Here are results for two molecules from patent US20240210394A1, “MICROORGANISM CAPTURE FROM ANTIMICROBIAL-CONTAINING SOLUTION” (MOMENTUM BIOSCIENCE LIMITED, priority 2019, published 2024).

Assay [1] relates to S. aureus. Put plainly: Blood culture time to positivity (flip time), bead rescue vs no-rescue control. As to conditions: for Flip time: Cefepime 164 mg/L blood; for Difference (Days) compared to BE / Flip time in Days: Vancomycin 500 mg/L blood, antibiotic-labelled line = BC control without beads; for Flip time in Days: bead rescue with named bead type; for Bead Rescue Flip time / Control Flip time in Days: antibiotic 500 mg/L blood. Type of assay: cell-based. As to the method:
An overnight culture of test organism was prepared in blood/broth medium (50:50 blood:broth medium from a BioMerieux SA culture bottle).
Ten-fold serial dilutions of overnight culture was prepared in blood/broth as required.
Antibiotic (abx) was added to whole human blood (in citrate-phosphate-dextrose, CPD, an anticoagulant) at required level.
Whole blood was used as the no-antibiotic control.
Test dilution(s) of organism was added to blood+antibiotic or blood only at 10 μL per mL of blood (sufficient prepared for experiment requirements). 100 μL plate count sample was taken (TO sample).
The inoculated samples were incubated at 37° C. (static) for 2-hour. 100 μL plate count sample was taken (T2 sample).
For the control, 5 mL of spiked blood+abx or blood only was added to blood culture bottles (BioMerieux SA culture bottle) using a vial adapter (West Pharmaceutical Services, Inc. PA, US) and incubated in the automated blood culture cabinet (adapter removed).
For the ‘rescue’ test, 5 mL of spiked blood+abx or blood only was treated with Momentum Capture Beads (Streptavidin-coated, −300 nm beads, Bio estapor, Merk Cat #BE-M 08/0.3) as below: • Momentum Capture Beads diluted in Detergent-free Microbial Binding Buffer (DMBB—Tris+NaCl)—50 μL beads:700 μL DMBB per clean-up • 750 μL of diluted beads added to 50 mL conical centrifuge tube • 5 mL of broth medium added to tube • 5 mL of spiked blood+abx or blood only added to tube • Incubate on ITL TherMix (Integrated Technologies Ltd. Kent, UK), 32.5° C./30 min/1000 rpm—ramped speed protocol • Magnetise on V&P magnet (V&P scientific Inc, CA, US) for 5 min then remove supernatant • Resuspend beads in 1 mL Detergent-free Wash Buffer (DWB—Tris+NaCl) off magnet and transfer to 2 mL Eppendorf flip-top tube on DynaMag-2 magnet (Thermo Fisher Scientific, Life Technologies Ltd. Paisley, UK) • Magnetise for 5 min then remove supernatant • Resuspend beads in 1 mL DWB off magnet then replace on DynaMag-2 magnet • Magnetise for 5 min then remove supernatant • Resuspend beads in 1 mL DWB, add to a fresh, unused blood culture bottle (BioMerieux SA culture bottle) containing standard blood culture growth medium using a vial adapter, and start incubation (adapter removed). • Blood culture bottles are incubated in the automated blood culture cabinet (BacT/ALERT BioMerieux) which records time to positivity. The “Flip” time is when a bottle turns positive as determined by the automated blood culture cabinet. • “Flip” time of each bottle is recorded. • Plate counts (Total Viable Count TVC) are recorded.
(§1) Day 1: Prepare overnight culture of test organism in blood/broth medium (50:50 blood:broth) and incubate at 37° C. in a shaking incubator.
Day 2: Prepare ten-fold serial dilution of overnight culture in blood/broth as required • Antibiotic added to whole blood (defibrinated horse blood) at required level • Whole blood as no-antibiotic control • Test dilution(s) of organism added to blood+antibiotic or blood only at 10 μL per mL of blood (sufficient prepared for experiment requirements) • 100 μL plate count sample taken (TO sample) • 2-hour incubation at 37° C. (static), to mimic organism exposure to antimicrobials in the patient • 100 μL plate count sample taken (T2 sample) • 5 mL of spiked blood+abx or blood only added to blood culture bottle (using vial adapter) and incubation started (adapter removed) • 5 mL of spiked blood+abx or blood only (from same source) treated with Momentum Capture Beads as below: • 1. Momentum Capture Beads diluted in Detergent-free Microbial Binding Buffer (DMBB)—50 μL beads:700 μL DMBB per clean-up • 2. 750 μL of diluted beads added to 50 mL conical centrifuge tube • 3. 5 mL of transfer medium added to tube • 4. 5 mL of spiked blood+abx or blood only added to tube • 5.

The subject of assay [2] is E. coli. The description is as above. The settings on record: Cefepime 164 mg/L blood; for Flip time: Bead rescue; for Flip time in Days: Control (FA plus bottle). It counts as cell-based. The protocol: as §1
Day 2: Prepare ten-fold serial dilution of overnight culture in blood/broth as required and incubate at 37° C. for 2 h for outgrowth.
Add 5 mL of spiked blood+beads (set 1) and 5 mL of spiked blood/Abx+beads (set 3) to blood culture bottles (BioMerieux SA culture bottle) using a vial adapter (West Pharmaceutical Services, Inc. PA, US).
Remove the adaptor and incubate the blood culture bottles in the automated blood culture cabinet (BacT/ALERT BioMerieux) for up to 5 days.
Record the “Flip” time of each bottle or bottle result at the end of 5 days incubation. The “Flip” time is when a bottle turns positive as determined by the automated blood culture cabinet, which records time to positivity.
Day 1: Prepare overnight culture of test organism in blood/broth medium (50:50 blood:broth) and incubate at 37° C. (or 30° C. for C. neoformans) in a shaking incubator.
(or 30° C. for C. neoformans) for 2 h for outgrowth. • Antibiotic added to whole blood (defibrinated horse blood) at required level • Whole blood as no-antibiotic control • Test dilution(s) of organism added to blood+antibiotic or blood only at 10 μL per mL of blood (sufficient prepared for experiment requirements) • 100 μL plate count sample taken (TO sample) • 2-hour incubation (static) at 37° C. (or 30° C. for C. neoformans) • 100 μL plate count sample taken (T2 sample) • 5 mL of spiked blood+abx or blood only added to blood culture bottle (using vial adapter) and incubation started (adapter removed) • 5 mL of spiked blood+abx or blood only (from same source) treated with Momentum Capture Beads as below: • 1. Capture Beads diluted in the relevant Capture Reagent—50 μL beads:700 μL capture reagent per clean-up • 2. 750 μL of diluted beads added to 50 mL conical centrifuge tube • 3. 5 mL of transfer medium added to tube • 4. 5 mL of spiked blood+abx or blood only added to tube • 5. […] Magnetise on V&P magnet for 10 min then remove supernatant • 7. Resuspend beads in 1 mL Detergent-free Wash Buffer (DWB) off magnet and transfer to 2 mL Eppendorf flip-top tube on DynaMag-2 magnet • 8. Magnetise for 3 min then remove supernatant • 9. Resuspend beads in 1 mL Detergent-free Wash Buffer (DWB) off magnet then replace on DynaMag-2 magnet • 10. Magnetise for 3 min then remove supernatant • 11. Resuspend beads in 1 mL DWB, add to new blood culture bottle (using vial adapter) and start incubation (adapter removed)
Momentum Capture Beads diluted in the relevant Capture Reagent—50 μL beads:700 μL capture reagent per clean-up • 2. 750 μL of diluted beads added to 50 mL conical centrifuge tube • 3. 5 mL of transfer medium added to tube • 4. 5 mL of spiked blood+abx or blood only added to tube • 5. […] Magnetise on V&P magnet for 10 min then remove supernatant • 7. Resuspend beads in 1 mL Detergent-free Wash Buffer (DWB) off magnet and transfer to 2 mL Eppendorf flip-top tube on DynaMag-2 magnet • 8. Magnetise for 3 min then remove supernatant • 9. Resuspend beads in 1 mL Detergent-free Wash Buffer (DWB) off magnet then replace on DynaMag-2 magnet • 10. Magnetise for 3 min then remove supernatant • 11. Resuspend beads in 1 mL DWB, add to an unused blood culture bottle (BioMerieux FA+culture bottle) using vial adapter and start incubation (adapter removed)

The subject of assay [3] is E. coli. The settings on record: cited from earlier work.
The next assay relates to Klebsiella pneumoniae. As to conditions: K. pneumoniae; cited from earlier work.
The next assay concerns Pseudomonas aeruginosa. The settings on record: P. aeruginosa; cited from earlier work.
The subject of assay [4] is S. aureus. As to conditions: cited from earlier work.
In assay [5] the test system is S. aureus. Nature of the assay: Antibiotic breakpoint experiment (plate counts at 0, 2.5 and 5 hours). It counts as cell-based. As to conditions: two different strains of S. aureus, every time point. As to the method: To determine a starting point in terms of antibiotic concentration and microbial load for subsequent experiments. Antibiotic concentration ranges were tested to find appropriate breakpoints for use in experiments. A range of antibiotic concentrations were tested against a given microbial load to determine the concentration at which growth was inhibited but the microorganisms were not killed. This was determined by plate counts at intervals of 0, 2.5 and 5 hours.
• 1. Day 1: Prepare an overnight culture of the test organism in 3 mL of blood/broth solution (1.5 mL defibrinated Horse blood: 1.5 mL transfer Medium). • 2. Day 2: Dissolve antibiotic in required diluent to prepare a suitable stock solution and prepare a dilution series in Nuclease-free Water to cover a final concentration range of 100 to 0.001 and Omg/L. • 3. Dilute the overnight culture of the microorganism to the required point in pre-warmed blood/broth solution. This may require determining for each organism/antibiotic combination, but as a starting dilution 10-4 will be used (giving a final concentration in the sample of 10-5). • 4. Aliquot 980 μL of pre-warmed defibrinated horse blood into the required number of 2 mL flip-top tube. • 5. […]
The concentrations determined by this protocol were used in the following examples unless stated otherwise. […]

SMILES strings stand for the structures.

On to `CO/N=C(\C(=O)N[C@@H]1C(=O)N2C(C(=O)[O-])=C(C[N+]3(C)CCCC3)CS[C@H]12)c1csc(N)n1` [Cefepime], for which the “Flip time” value amounted to 0.46 days in the assay on S. aureus [1] (Bead rescue, 125000 cfu/5 mL blood); 0.39 days with S. aureus [1] (Bead rescue, 750000 cfu/5 mL blood); 2.69 days in the assay with S. aureus [1] (Control (FA plus bottle), 125000 cfu/5 mL blood); 2.49 days in the assay with S. aureus [1] (Control (FA plus bottle), 750000 cfu/5 mL blood); 0.47 days in the assay on E. coli [2] (125000 cfu/5 mL blood); 0.38 days with E. coli [2] (1250000 cfu/5 mL blood). The “Flip time in Days” value with E. coli [2] (125000 cfu/5 mL blood) and in the assay on E. coli [2] (1250000 cfu/5 mL blood) was “Neg” in each case. Moreover, the minimum inhibitory concentration (MIC) (usually the least concentration at which growth counts as inhibited) was no more than 1 µg/mL with E. coli [3], no more than 1 µg/mL with Klebsiella pneumoniae, no more than 1 µg/mL in the assay with Pseudomonas aeruginosa and no more than 4 µg/mL in the assay on S. aureus [4].
On to `CN[C@H](CC(C)C)C(=O)N[C@H]1C(=O)N[C@@H](CC(N)=O)C(=O)N[C@H]2C(=O)N[C@H]3C(=O)N[C@H](C(=O)N[C@H](C(=O)O)c4cc(O)cc(O)c4-c4cc3ccc4O)[C@H](O)c3ccc(c(Cl)c3)Oc3cc2cc(c3O[C@@H]2O[C@H](CO)[C@@H](O)[C@H](O)[C@H]2O[C@H]2C[C@](C)(N)[C@H](O)[C@H](C)O2)Oc2ccc(cc2Cl)[C@H]1O` [Vancomycin], for which, in the assay on S. aureus [1] (Example 23, S. aureus in blood containing 500 mg/L Vancomycin), the “No-rescue blood culture control result” value was “negative after 5 days”. Further, in the assay with S. aureus [1] (Example 24, S. aureus in blood containing 500 mg/L Vancomycin), the “No-rescue blood culture controls result” value is given as “negative”. Also, the “Difference (Days) compared to BE” value in the assay on S. aureus [1] (20000 Cfu/mL), in the assay with S. aureus [1] (35760 Cfu/mL), with S. aureus [1] (200000 Cfu/mL) and in the assay with S. aureus [1] (357600 Cfu/mL) was “Negative” throughout. The “Flip time in Days” value with S. aureus [1] (20000 Cfu/mL), in the assay with S. aureus [1] (35760 Cfu/mL), with S. aureus [1] (200000 Cfu/mL) and in the assay on S. aureus [1] (357600 Cfu/mL) was “Negative” throughout. The “Bead Rescue Flip time” value in the assay with S. aureus [1] (1000 cfu/5 mL Blood) was 1.15 days; in the assay with S. aureus [1] (100000 cfu/5 mL Blood) it was 0.66 days; in the assay on S. aureus [1] (1000000 cfu/5 mL Blood) it was 0.61 days. Moreover, the “Control Flip time in Days” value in the assay with S. aureus [1] (1000 cfu/5 mL Blood), in the assay with S. aureus [1] (100000 cfu/5 mL Blood) and with S. aureus [1] (1000000 cfu/5 mL Blood) was “Neg” each time. Further, the “Growth in antibiotic dilution series (breakpoint experiment)” value with S. aureus [5] was “grew in every dilution”.
